# Reference: article PMC10056008 (Pharmaceuticals, 2023)
# Experiments:
# [1] = test system: CES1; conditions: in vitro; cited from earlier work
# [2] = test system: recombinant CES1A1; conditions: cited from earlier work
# [3] = test system: coagulation; experiment: Coagulation assay (aPTT, PT, dPT, TT, fibrinogen) in plasma of dosed subjects; format: in vivo, human
# Description: An open-label, two-period, single sequence clinical study was conducted. After an overnight fast and drinking 200 mL of water one hour before drug administration, eligible subjects were administered with a capsule of dabigatran etexilate 150 mg ([…]®) on the first day of the study. Blood samples for pharmacokinetic and pharmacodynamic analyses were obtained using EDTA tubes and citrate tubes, respectively. […] Subjects remained at fasting stage until 4 h after the administration. […] To ensure compliance, subjects visited the study site for every drug administration. […] Blood samples were obtained at the same time point scheduled as the first day of the study. Adverse events were collected during the entire study period. This study was conducted in accordance with the Declaration of Helsinki, good clinical practice, and local regulation. The study was approved by the Institutional Review Board at Korea University Guro Hospital (2018GR0336, date of approval: 11 October 2018) and registered at ClinicalTrials.gov (NCT03728101). Anticoagulant assays of aPTT, PT, dPT, TT, and fibrinogen were measured using STA® Compact Max (Stago, Asnieres, France) according to the manufacturer's instructions. […] To measure aPTT, 50 μL of plasma sample was placed in a cuvette in the presence of STA®-PTT (50 μL) and 50 μL of 0.025 M CaCl2. For fibrinogen, 7.5 μL of plasma which was automatically diluted with Owren-Koller buffer was placed into a cuvette and then 50 μL of […] was added. For pharmacodynamic assessment, Phoenix Winnonlin® version 8.3 (Pharsight, Mountain View, CA, USA) was used to calculate AUEC with the linear trapezoidal method and Rmax was directly determined from individual profiles.
# [4] = cited from earlier work
# [5] = test system: thrombin generation; experiment: Thrombin generation assay (TGA) in plasma of dosed subjects; format: in vivo, human
# Description: An open-label, two-period, single sequence clinical study was conducted. After an overnight fast and drinking 200 mL of water one hour before drug administration, eligible subjects were administered with a capsule of dabigatran etexilate 150 mg ([…]®) on the first day of the study. Blood samples for pharmacokinetic and pharmacodynamic analyses were obtained using EDTA tubes and citrate tubes, respectively. […] Subjects remained at fasting stage until 4 h after the administration. […] To ensure compliance, subjects visited the study site for every drug administration. […] Blood samples were obtained at the same time point scheduled as the first day of the study. Adverse events were collected during the entire study period. This study was conducted in accordance with the Declaration of Helsinki, good clinical practice, and local regulation. […] TGA was performed using a Technothrombin® TGA kit (Technoclone, Vienna, Austria) on a fully automated, computer-controlled microplate reader (Flexstation 3; Molecular Devices, San Jose, CA, USA) with a 360 nm excitation wavelength and 460 nm emission wavelength. In brief, 30 μL of plasma samples were mixed with 25 μL of 400 μmol/L fluorogenic substrate ([…]; Bachem, Bubendorf, Switzerland). The assay was initiated by dispensing 10 μL of 5 pmol/L recombinant human tissue factor lipidated with synthetic phospholipids and 10 μL of 15 mmol/L CaCl2. TGA results are expressed as Cmax, AUC, Tmax, and lag time. For pharmacodynamic assessment, Phoenix Winnonlin® version 8.3 (Pharsight, Mountain View, CA, USA) was used to calculate AUEC with the linear trapezoidal method and Rmax was directly determined from individual profiles.
# [6] = before dabigatran etexilate administration, period with simvastatin 40 mg once daily, mean (SD)
# [7] = before vs after once daily simvastatin for 7 days
smiles,measurement,setting,value
CCC(C)(C)C(=O)O[C@H]1C[C@@H](C)C=C2C=C[C@H](C)[C@H](CC[C@@H]3C[C@@H](O)CC(=O)O3)[C@H]21 [Simvastatin],effect on CES1-mediated hydrolysis of clopidogrel,[1],can inhibit
same,effect on imidapril hydrolase activity,[2],inhibitory effects
same,"Fibrinogen, baseline",[3]; [6],259.3 (39.4) mg/dL
same,"PT (INR), baseline",[3]; [6],1.0 (0.1) INR
same,"PT, baseline",[3]; [6],13.7 (0.6) s
same,"TT, baseline",[3]; [6],16.2 (0.9) s
same,"aPTT, baseline",[3]; [6],40.4 (3.3) s
same,"dPT, baseline",[3]; [6],43.2 (1.8) s
same,"anticoagulant effect of simvastatin without dabigatran, coagulation assays",[3]; [7],no significant difference
same,elimination half-life,[4],about 2.8 h
same,"Thrombin Generation Assay AUC (endogenous thrombin potential), baseline",[5]; [6],4073.1 (642.2) nM∙min
same,"Thrombin Generation Assay Tmax, baseline",[5]; [6],7.3 (0.8) min
same,"Thrombin Generation Assay lag time, baseline",[5]; [6],3.5 (0.5) min
same,"anticoagulant effect of simvastatin without dabigatran, thrombin generation",[5]; [7],no significant difference
